{"source": "patent US12359203B2", "about": "“Combination vectors and methods for treating cancer” (American Gene Technologies International Inc., priority 2016, dated 2025)", "key": {"[1]": {"test_system": "PC3 tumors", "assay": "PC3 tumor growth in NOD/SCID mice, transduced cells with or without zoledronic acid", "format": "in vivo", "conditions": "single dose of zoledronic acid", "experimental": "Protocol overview for co-administration of LV-shRNA-FDPS (farnesyl diphosphate synthase) with or without zoledronic acid in mice implanted with human prostate cancer cell line PC3. Tumor cells were cultured in vitro, then transduced with lentivirus vector control with a scrambled sequence (nonfunctional) shRNA insert and an expression cassette for firefly luciferase, or LV-FDPS with a shRNA capable of reducing expression of FDPS mRNA and an expression cassette for firefly luciferase. The transduced tumor cells were implanted on the flank of immune deficient mice by subcutaneous injection. Once tumors reached approximately 200 mm^3 volume, all mice receive a single dose of zoledronic acid (100 micrograms per kilogram body weight, which is similar to a standard human dose) in saline. 7 days after zoledronic acid injection, an imaging study was repeated to measure volume and photon intensity of individual tumors.\nDay—4: Material Preparation and Delivery. Prepare lenti-vector control and lenti-shRNA-FDPS transduced PC3 cells. • 1. […]\nEffects of LV-shRNA-FDPS with or without zoledronic acid on PC3 tumor growth in NOD/SCID mice. […] A bioluminescence imaging study on Day 8 determined the average tumor sizes prior to zoledronic acid treatment (FIG. 10A). The photon intensity for tumors was measured with a CCD light capture system."}, "[2]": {"test_system": "human CD47", "assay": "CD47 mRNA expression in Hep3B cells (quantitative RT-PCR)", "format": "cell-based", "conditions": "48 hours after transduction, mRNA normalized to actin, FIG. 7A", "experimental": "Functional Assay: The effect of different CD47 shRNA targeting sequences on CD47 expression was determined by measuring mRNA expression. Hep3B hepatocellular carcinoma cells were transduced with a lentiviral vector containing CD47 shRNA sequences. After 48 hours, cells were lysed and RNA was extracted using the RNeasy mini kit from Qiagen. cDNA was then synthesized from RNA using SuperScript VILO from Invitrogen. The samples were then analyzed by quantitative RT-PCR using an Applied Biosystems StepOne PCR machine. CD47 expression was detected with SYBR Green from Invitrogen using the forward primer (5′-[…]-3′) (SEQ ID NO: 63) and reverse primer (5′-GCCTCTTGACATTCTCCTC-3′) (SEQ ID NO: 64). The samples were normalized by measuring actin expression using the forward primer (5′-AGCGCGGCTACAGCTTCA-3′) (SEQ ID NO: 61) and reverse primer (5′-[…]-3′) (SEQ ID NO: 65). The relative expression of CD47 was determined by its Ct value normalized to the level of actin for each sample."}, "[3]": {"test_system": "human FDPS", "assay": "Functional assay for FDPS mRNA reduction (quantitative RT-PCR)", "format": "cell-based", "conditions": "HepG2 cells, 48 hours after transduction, mRNA normalized to actin; FIG. 4A", "experimental": "(§1) Vector Construction: For FDPS shRNA, oligonucleotide sequences containing BamHI and EcoRI restriction sites were synthesized by MWG operon. Oligonucleotide sequences were annealed by incubation at 70 degrees Celsius and cooling to room temperature. Annealed oligonucleotides were digested with the restriction enzymes BamHI and EcoRI for one hour at 37 degrees Celsius and then the enzymes were heat-inactivated at 70 degrees Celsius for 20 minutes. In parallel, the lentiviral vector was digested with the restriction enzymes BamHI and EcoRI for one hour at 37 degrees Celsius. […] The DNA concentration was determined and the vector to oligo sequence was ligated in the ratio 3:1 insert to vector. […] Cells were collected after 2-4 days and protein and RNA was analyzed for FDPS expression.\nFunctional Assay for mRNA Reduction: The effect of different FDPS short homology RNA (shRNA) targeting sequences on FDPS expression was determined by measuring mRNA expression. […] The samples were then analyzed by quantitative RT-PCR using an Applied Biosystems StepOne PCR machine. FDPS expression was detected with SYBR Green from Invitrogen using the forward primer (5′-[…]-3′) (SEQ ID NO: 59) and reverse primer (5′-[…]-3′) (SEQ ID NO: 60) with standard conditions for polymerase chain reaction analysis. […] The relative expression of FDPS was determined by its Ct value normalized to the level of actin for each sample."}, "[4]": {"test_system": "FDPS", "assay": "FDPS immunoblot in HepG2 cells infected with lentiviral vectors", "format": "cell-based, human", "conditions": "48 hours, FIG. 4B", "experimental": "HepG2 human hepatocellular carcinoma cells were infected with lentiviral vectors containing either the H1 promoter and a FDPS shRNA (SEQ ID NO: 4) sequence or the EF-1alpha promoter and the following miR30-based FDPS sequences:\nAfter 48 hours, cells were lysed and an immunoblot was performed using an anti-FDPS (Thermo Scientific) and an anti-actin (Sigma) antibody for a protein loading control. […] Treatment with the miR30-based FDPS sequences decreased FDPS expression."}, "[5]": {"test_system": "human cMyc", "assay": "cMyc mRNA expression in HepG2 cells (quantitative PCR)", "format": "cell-based", "conditions": "48 hours after transduction, mRNA normalized to actin, FIG. 8A", "experimental": "as §1, with “cMyc” for “FDPS”\nFunctional Assay: The effect of different cMyc shRNA targeting sequences on cMyc expression was determined by measuring mRNA expression. […] The samples were then analyzed by quantitative PCR using an Applied Biosystems StepOne PCR machine. cMyc expression was detected with SYBR Green from Invitrogen using the forward primer (5′-GGACTATCCTGCTGCCAA-3′) (SEQ ID NO: 69) and reverse primer (5′-GCCTCTTGACATTCTCCTC-3′) (SEQ ID NO: 64). […] The relative expression of cMyc was determined by its Ct value normalized to the level of actin for each sample."}, "[6]": {"test_system": "cMyc", "assay": "cMyc immunoblot in SNU449 cells infected with lentiviral vectors", "format": "cell-based, human", "conditions": "48 hours, FIG. 8B", "experimental": "After 48 hours, cells were lysed and an immunoblot was performed using an anti-cMyc (Santa Cruz) and an anti-actin (Sigma) antibody for a protein loading control."}}, "data": [{"compound": "O=P(O)(O)C(O)(Cn1ccnc1)P(=O)(O)O", "note": "[zoledronic acid]", "values": [{"measurement": "toxicity in mice", "setting": "[1]", "value": "not toxic"}]}, {"compound": "CD47 sequence 1: CD47 shRNA, SEQ ID NO: 5 (DNA GGTGAAACGATCATCGAGCCTCGAGGCTCGATGATCGTTTCACCTTTTT)", "values": [{"measurement": "relative expression level of human CD47", "setting": "[2]", "value": "most significant inhibition"}]}, {"compound": "CD47 sequence 3: CD47 shRNA, SEQ ID NO: 7 (DNA CCTCCTTCGTCATTGCCATCTCGAGATGGCAATGACGAAGGAGGTTTTT)", "values": [{"measurement": "relative expression level of human CD47", "setting": "[2]", "value": "most significant inhibition"}]}, {"compound": "FDPS-2: FDPS shRNA, SEQ ID NO: 2 (DNA GCAGGATTTCGTTCAGCACTTCTCGAGAAGTGCTGAACGAAATCCTGCTTTTT)", "values": [{"measurement": "relative expression level of human FDPS", "setting": "[3]", "value": "most significant inhibition"}]}, {"compound": "FDPS-4: FDPS shRNA, SEQ ID NO: 4; used with H1 promoter in FIG. 4B (DNA GCAGAAGGAGGCTGAGAAAGTCTCGAGACTTTCTCAGCCTCCTTCTGCTTTTT)", "values": [{"measurement": "FDPS protein expression", "setting": "[4]", "value": "significantly decreased"}, {"measurement": "relative expression level of human FDPS", "setting": "[3]", "value": "most significant inhibition"}]}, {"compound": "cMyc shRNA Sequence 2: cMyc shRNA, SEQ ID NO: 11 (DNA GCGAACACACAACGTCTTGGACTCGAGTCCAAGACGTTGTGTGTTCGCTTTT)", "values": [{"measurement": "relative expression level of human cMyc", "setting": "[5]", "value": "most significant inhibition"}]}, {"compound": "cMyc shRNA Sequence 4: cMyc shRNA, SEQ ID NO: 13; used in FIG. 8B (GAGAATGTCAAGAGGCGAACACTCGAGTGTTCGCCTCTTGACATTCTCTTTTT)", "values": [{"measurement": "cMyc protein expression", "setting": "[6]", "value": "significantly decreased"}]}]}
